Source: PMC4338079, “N-Terminus Three Residues Deletion Mutant of Human Beta-Defensin 3 with Remarkably Enhanced Salt-Resistance” (PLoS ONE, 2015)
Where a SMILES comes first, the peptide text is derived from it. Where no end group is shown, it is not given here.

What was measured:
K. pneumonia ATCC 700603 = format: cell-based, Klebsiella pneumonia; conditions: 10^5-10^6 CFU/ml in PBS pH 7.2, 3 h at 37°C, colony count, mean ± SD of three
Source text: (§1) Ten strains obtained from the American Type Culture Collection (ATCC) and China Center of Industrial Culture Collection (CICC) were used for antibacterial and salt resistance assays. The Gram-positive strains were Staphyloccocus aureus ATCC 29213, Enterococcus faecalis ATCC 29212, Staphylococcus epidermidis ATCC 12228, Enterococcus faecium ATCC 6057, and Enterococcus faecium ATCC 19434. The Gram-negative strains were Escherichia coli ATCC 25922, Pseudomonas aeruginosa ATCC 15442, Klebsiella pneumonia ATCC 700603, Shigella flexneri CICC 21534, and Shigella sonnei CICC 21535. Fifteen E. coli clinical isolates were collected from 302 Military Hospital of China. The Gram-positive and Gram-negative strains were grown in Luria—Bertani (LB) and Mueller—Hinton (MH) media at 37°C, respectively.
(§2) The antibacterial activities of these peptides were determined in a modified microdilution assay as described previously. […] The five concentrations of the peptides were added to 200 μl of the bacterial suspension and then incubated at 37°C for 3 h before CFU numbers were determined. […] The cells were serially diluted in the same buffer, plated on Luria broth plates, and then incubated for 18 h at 37°C before the resulting colonies were counted. The bactericidal activity was expressed as the ratio of colonies counted to the number of colonies on a control plate. […]

S. aureus ATCC 29213 = format: cell-based, Staphyloccocus aureus; conditions: 10^5-10^6 CFU/ml in PBS pH 7.2, 3 h at 37°C, colony count, mean ± SD of three
Source text: as §1, §2

E. coli ATCC 25922 = format: cell-based, Escherichia coli; conditions: 10^5-10^6 CFU/ml in PBS pH 7.2, 3 h at 37°C, colony count, mean ± SD of three
Source text: as §1, §2

[1] = system: four Gram-positive and five Gram-negative bacteria; assay: Salt resistance assay, summary over the nine tested strains; format: cell-based; conditions: peptide 10 μg/ml (30 μg/ml K. pneumonia)
Procedure: (§3) The antibacterial activities of these peptides were determined in a modified microdilution assay as described previously. The strains were grown under aerobic condition in MH or LB broth at 37°C and then harvested in the exponential phase of growth (OD600 ≈ 0.6. OD, optical density). After dilution, the test strains were adjusted to 10^5 to 10^6 CFU bacteria per ml in phosphate-buffered saline solution (pH 7.2). The five concentrations of the peptides were added to 200 μl of the bacterial suspension and then incubated at 37°C for 3 h before CFU numbers were determined. Phosphate buffer served as the negative control. The cells were serially diluted in the same buffer, plated on Luria broth plates, and then incubated for 18 h at 37°C before the resulting colonies were counted. The bactericidal activity was expressed as the ratio of colonies counted to the number of colonies on a control plate. The 90% lethal concentration (LD90) is the concentration of the peptide at which 90% of viable cells are killed.
(§4) For the salt resistance assay, NaCl was included in the incubation buffer (1% MH or LB) over a range of concentrations (0, 50, 100, 150, and 200 mM NaCl) potentially present in the airway surface fluid of healthy subjects and patients with cystic fibrosis. For E. coli clinical isolates, the NaCl concentrations were increased to 0, 50, 100, 150, 200, 250, and 300 mM. The peptide concentration used in the salt dependence assay was 10 μg/ml, except for the 30 μg/ml concentration used against K. pneumonia ATCC 700603. Each assay was performed in triplicate. Bactericidal activity (the mean and standard deviation of three assays) was expressed as the ratio between the number of colonies counted and the number of colonies on a control plate.

[2] = system: fifteen E. coli clinical isolates; assay: Salt resistance assay against clinical isolates; format: cell-based, Escherichia coli; conditions: of 15 E. coli clinical isolates, peptide 10 μg/ml
Source text: as §1, §3, §4

E. faecalis ATCC 29212 = format: cell-based, Enterococcus faecalis; conditions: 10^5-10^6 CFU/ml in PBS pH 7.2, 3 h at 37°C, colony count, mean ± SD of three
Source text: as §1, §2

S. flexneri CICC 21534 = format: cell-based, Shigella flexneri; conditions: 10^5-10^6 CFU/ml in PBS pH 7.2, 3 h at 37°C, colony count, mean ± SD of three
Source text: as §1, §2

P. Aeruginosa ATCC 15442 = format: cell-based, Pseudomonas aeruginosa; conditions: 10^5-10^6 CFU/ml in PBS pH 7.2, 3 h at 37°C, colony count, mean ± SD of three
Source text: as §1, §2

[3] = system: S. epidermidis ATCC 12228; format: cell-based, Staphylococcus epidermidis; conditions: 10^5-10^6 CFU/ml in PBS pH 7.2, 3 h at 37°C, colony count, mean ± SD of three
Source text: as §1, §2

E. faecium ATCC 6057 = format: cell-based, Enterococcus faecium; conditions: 10^5-10^6 CFU/ml in PBS pH 7.2, 3 h at 37°C, colony count, mean ± SD of three
Source text: as §1, §2

E. faecium ATCC 19434 = format: cell-based, Enterococcus faecium; conditions: 10^5-10^6 CFU/ml in PBS pH 7.2, 3 h at 37°C, colony count, mean ± SD of three
Source text: as §1, §2

S. sonnei CICC 21535 = format: cell-based, Shigella sonnei; conditions: 10^5-10^6 CFU/ml in PBS pH 7.2, 3 h at 37°C, colony count, mean ± SD of three
Source text: as §1, §2

Vero cells = system: Vero cells
Procedure: Vero cells suspended in Dulbecco’s modified Eagle’s medium (DMEM)-high glucose culture medium supplemented with 10% (vol/vol) fetal calf serum and 1% (vol/vol) penicillin—streptomycin were seeded on a 96-well microtiter plate at a density of 1×10^4 cells per well. After incubation overnight at 37°C under 5% CO2 in a humidified atmosphere, the cells were washed twice with buffer (pH 7.4) containing 20 mM HEPES and 150 mM NaCl. Defensins were diluted in the same wash buffer, and 200 μl was added per well. The buffer was discarded after 2 h of incubation at 37°C under 5% CO2. Subsequently, 200 μl of DMEM and 50 μl of 3-(4,5-dimethylthiazol-2-yl)-2,5-diphenyltetrazolium bromide (MTT, 5 mg/ml) were added. DMEM (100%) and MTT were discarded, and 200 μl of DMSO was added in the plate after 6 h of incubation at 37°C under 5% CO2. The absorbance was measured at 490 nm with a microtiter plate reader.

Compound | LD90 (Mean ± SD) (K. pneumonia ATCC 700603) | LD90 (Mean ± SD) (S. aureus ATCC 29213) | LD90 (Mean ± SD) (E. coli ATCC 25922) | Effect of NaCl on antibacterial activity ([1]; 50 mM NaCl, all the tested strains, except for E. coli) | Effect of NaCl on antibacterial activity ([1]; 200 mM NaCl versus 0 mM NaCl, P < 0.01) | Number of isolates in which 50% or more activity was retained ([2]; 200 mM NaCl) | LD90 (Mean ± SD) (E. faecalis ATCC 29212) | LD90 (Mean ± SD) (S. flexneri CICC 21534) | LD90 (Mean ± SD) (P. Aeruginosa ATCC 15442) | LD90 (Mean ± SD) [3] | LD90 (Mean ± SD) (E. faecium ATCC 6057) | LD90 (Mean ± SD) (E. faecium ATCC 19434) | LD90 (Mean ± SD) (S. sonnei CICC 21535) | Concentration from which cytotoxicity starts (Vero cells) | Effect of NaCl on antibacterial activity ([1]; 100 mM NaCl, all the tested strains, except for S. aureus) | Number of isolates in which 50% or more activity was retained ([2]; 250 mM NaCl) | Number of isolates in which 50% or more activity was retained ([2]; 300 mM NaCl)
CC[C@H](C)[C@H](NC(=O)[C@H](CCC(N)=O)NC(=O)[C@H](CCC(=O)O)NC(=O)[C@H](CCC(=O)O)NC(=O)[C@H](CCCCN)NC(=O)[C@@H]1CCCN1C(=O)[C@H](CC(C)C)NC(=O)[C@H](CS)NC(=O)[C@H](CO)NC(=O)[C@H](CC(C)C)NC(=O)[C@@H](NC(=O)[C@H](C)NC(=O)[C@H](CS)NC(=O)[C@H](CCCNC(=N)N)NC(=O)CNC(=O)CNC(=O)[C@H](CCCNC(=N)N)NC(=O)[C@@H](NC(=O)[C@H](CCCNC(=N)N)NC(=O)[C@H](CS)NC(=O)[C@@H](N)Cc1ccc(O)cc1)C(C)C)C(C)C)C(=O)NCC(=O)N[C@@H](CCCCN)C(=O)N[C@@H](CS)C(=O)N[C@@H](CO)C(=O)N[C@H](C(=O)N[C@@H](CCCNC(=N)N)C(=O)NCC(=O)N[C@@H](CCCNC(=N)N)C(=O)N[C@@H](CCCCN)C(=O)N[C@@H](CS)C(=O)N[C@@H](CS)C(=O)N[C@@H](CCCNC(=N)N)C(=O)N[C@@H](CCCNC(=N)N)C(=O)N[C@@H](CCCCN)C(=O)N[C@@H](CCCCN)C(=O)O)[C@@H](C)O [hBD-3Δ10] (H-YCRVRGGRCAVLSCLPKEEQIGKCSTRGRKCCRRKK-OH; N-terminus and C-terminus assumed) | more than 100 μg/ml |  |  |  |  |  |  |  |  |  |  |  |  |  |  |  | 
GIINTLQKYYCRVRGGRCAVLSCLPKEEQIGKCSTRGRKCCRRKK (cysteines drawn unpaired) [hBD-3, human beta-defensin 3] | 18.6 ± 2.8 µg/mL | 4.0 ± 0.8 µg/mL | 8.0 ± 1.2 µg/mL | not or slightly inhibited | greatly inhibited | two | 2.4 ± 1.0 µg/mL | 3.7 ± 0.2 µg/mL | 6.8 ± 0.9 µg/mL | 3.5 ± 1.2 µg/mL | 1.6 ± 0.4 µg/mL | 2.3 ± 0.5 µg/mL | 4.0 ± 0.7 µg/mL | higher than 20 μg/ml |  |  | 
NTLQKYYCRVRGGRCAVLSCLPKEEQIGKCSTRGRKCCRRKK (cysteines drawn unpaired) [hBD-3Δ4] |  |  |  |  |  | 14 isolates |  |  |  |  |  |  |  |  | almost the same antimicrobial activity as it would have in the absence of NaCl | 8 isolates | 5 isolates
